Results on three compounds are retold here after paper PMC4340794, “Pharmacokinetic Study of 14-(3-Methylbenzyl)matrine and 14-(4-Methylbenzyl)matrine in Rat Plasma Using Liquid Chromatography-Tandem Mass Spectrometry” (PLoS ONE, 2015).

Molecules are shown by their SMILES.

In general, Tmax refers to the time at which the peak concentration occurs. The AUC(0-t) is exposure summed from dosing to a finite time, without extrapolation to infinity. Lower therefore signals less exposure. By Cmax is commonly meant the maximum level reached in the sampled fluid or tissue. As a reminder, the half-life is the time needed for the level to fall by half in the phase considered. Read a low half-life as rapid decline.

Series [1] is described as follows: PK study using rats, oral administration, plasma levels by HPLC-MS/MS. The note with it: oral (gavage) 25 mg/kg, mean ± SD; for Tmax / AUC(0-t) / Cmax / half-life / k el / MRT last: Sprague-Dawley; for Tmax / AUC(0-t): rat, plasma, po, 25 mg/kg; for Cmax / half-life / k el / MRT last / CL / V: rat plasma; for k el: read-out: Ke (converted); for MRT last: read-out: MRT0−t (converted). The format is in vivo, Sprague–Dawley rats. On the procedure:
HPLC analysis was performed using the Dionex UltiMate 3000 HPLC equipped with a binary pump, an on-line degasser, an auto-sampler and a column temperature controller. The chromatographic separations were performed using a Hypersil GOLD C18 column (100 mm × 2.1 mm, 1.9 μm particle size) protected by a C18 guard column (10 mm × 2.1 mm, 5 μm) at 40°C. The mobile phase consisted of acetonitrile:0.1% formic acid (65:35, v/v). The flow rate was set at 0.2 ml/min. Aliquots of 2 μl were injected into the HPLC system for analysis.
MS analysis was performed using a Thermo Scientific TSQ Quantum Access MAX triple-stage quadrupole mass spectrometer equipped with an electrospray ionization (ESI) source in the positive-ionization mode. The typical ion source parameters were as follows: spray voltage: 3500 V; sheath gas pressure (N2): 20 units; auxiliary gas pressure (N2): 5 units; ion transfer tube temperature: 350°C; collision gas (Ar): 1.5 mTorr; Q1/Q3 peak resolution: 0.7 Da; and scan width: 0.002 Da. The samples were analyzed via selective-reaction monitoring (SRM) of the ion pairs at m/z 343 → 148 for 3MBM, m/z 343 → 148 for 4MBM, or m/z 166 → 133 for the IS. The scan dwell time was set at 0.1 s for every channel. All data collected in the centroid mode were acquired and processed using Xcalibur 2.2 software (Thermo Fisher Scientific, Inc., USA).
Each plasma sample (100 μl) was mixed with 20 μl of the working IS solution in a 1.5-ml labeled microcentrifuge tube and was vortexed for 5 s. Then, 1000 μl of isopropanol:ethyl acetate (v/v, 25:75) was added, and each sample was vortexed for 1 min. Each tube was subsequently centrifuged at 12,000 × g for 10 min. The organic layer was transferred to another tube and evaporated to dryness at ambient temperature under a gentle stream of nitrogen. The residue was reconstituted in 100 μl of the mobile phase, and 2 μl of each sample was injected into the HPLC–MS/MS system for analysis.
Aqueous solutions of 3MBM and 4MBM were separately administered to 12 rats via gavage at 25 mg/kg (2.5 mg/ml aqueous solutions), which was equivalent to the dose administered to mice in our previous study. Serial blood samples (0.5 ml) were obtained at 0, 15, 30, 45, 60, 90, 120, 150, 240, 600, 960, and 1440 min after oral administration. All samples were placed in heparinized tubes. After centrifugation at 12,000 rpm and 4°C for 10 min, the plasma was collected and frozen at −20°C until analysis. The PK parameters were estimated according to a non-compartmental model using the TopFit 2.0 software package (Thomae, Germany). The elimination half-life (t1/2) was 0.693/ke, where ke, the elimination rate constant, was calculated by fitting the mean data at four terminal points of the plasma concentration profile to a log-linear regression equation using the least-squares method. The maximum drug plasma concentration (Cmax) and time to Cmax (Tmax) were directly determined from the observed data. The area under the plasma concentration–time curve from zero to the time of the final measurable sample (AUC0−t) was calculated using the linear-trapezoidal rule.

The next series has as its system hepatoma. Also on record: method as in earlier work. The note with it: cited from earlier work; for tumor inhibition rate: previous pharmacological experiment.
A short description of series [2]: Stability of analytes in rat plasma samples (post-preparative, freeze–thaw, long-term cold storage). The format is in vitro ADME. As to conditions: for Stability III R.E. / Stability III Concentration / Stability II R.E. / Stability II Concentration: plasma; for Stability III R.E. / Stability III Concentration: 60 days at -20° C; for Stability III Concentration / Stability II Concentration / Stability I Concentration: n = 6, mean ± SD; for Stability II R.E. / Stability II Concentration: three freeze-thaw cycles; for Stability I R.E. / Stability I Concentration: processed samples, auto-sampler 24 h. As to the method: Selectivity was assessed by comparing the chromatograms of six different batches of blank rat plasma to the corresponding spiked rat plasma. Linearity was assessed via weighted (1/x^2) analysis of the six different calibration curves. Intra- and inter-day precision (the relative standard deviation, RSD) and accuracy (the relative error, RE) were determined by analyzing the low-, intermediate-, and high-concentration QC samples (n = 6) on three different days. The matrix effect was investigated by comparing the peak areas of the analytes in the post-extraction spiked blank plasma samples at low and high analyte concentrations to the corresponding standard solutions. The extraction yield was determined by comparing the mean peak areas of the six extracted samples at low, intermediate, and high QC concentrations to the mean peak areas of the spike-after-extraction samples. Stability was assessed by analyzing the replicates (n = 6) of the low, intermediate and high QC samples during the sample storage and processing procedures. Freeze–thaw stability was determined after three freeze–thaw cycles. Post-preparation stability was estimated by analyzing the QC samples after 24 h at 4°C. Six aliquots of the QC samples were stored at −20°C for 60 days to determine their long-term stability.

`Cc1cccc(CC2CCC3C4CCCN5CCCC(CN3C2=O)C45)c1` (stereo not drawn) [3MBM, 14-(3-methylbenzyl)matrine]: in series [1], the Tmax is 1.47 h, the peak level (Cmax) was 1050 ± 233 ng/mL, the half-life is 4.97 ± 0.583 h and the k el was 3.92e-05 s⁻¹. Further, in series [1], the MRT last is 7.4 h, the CL came out at 59 ± 13 mL/min and the V stood at 25119 ± 5779 mL. The compound further had an AUC(0-t) in series [1] (first AUC0-t line of Table 3) of 7210 ng·h/mL. The compound also had an AUC(0-t) in series [1] (second AUC0-t line of Table 3) of 7480 ng·h/mL. The “anti-hepatoma activity in vivo” value in the series on hepatoma (compared with cyclophosphamide) is “the same as those of the reference substances of cyclophosphamide”. For the same compound, the tumor inhibition rate in the series with hepatoma was 61.83%. In series [2] (spike 5 ng/ml), the “Stability III R.E.” value is -3.80%, the “Stability III Concentration” value worked out at 4.81 ± 0.42 ng/mL, the “Stability II R.E.” value is listed as 2.87% and the “Stability II Concentration” value was determined as 5.15 ± 0.35 ng/mL. In addition, in series [2] (spike 5 ng/ml), the “Stability I R.E.” value was -1.02% and the “Stability I Concentration” value amounted to 4.94 ± 0.46 ng/mL. In series [2] (spike 800 ng/ml), the “Stability III R.E.” value was 1.22%, the “Stability III Concentration” value came out at 809.8 ± 30.9 ng/mL, the “Stability II R.E.” value is -1.82% and the “Stability II Concentration” value was determined as 785.4 ± 46.8 ng/mL. Further, in series [2] (spike 800 ng/ml), the “Stability I R.E.” value was -1.03% and the “Stability I Concentration” value was determined as 791.7 ± 13.6 ng/mL. For the same compound, in series [2] (spike 1600 ng/ml), the “Stability III R.E.” value turned out to be 3.78%, the “Stability III Concentration” value was found to be 1660 ± 63.9 ng/mL, the “Stability II R.E.” value came out at 2.46% and the “Stability II Concentration” value was found to be 1639 ± 98.5 ng/mL. Also, in series [2] (spike 1600 ng/ml), the “Stability I R.E.” value was -0.40% and the “Stability I Concentration” value amounted to 1593 ± 39.9 ng/mL.
`Cc1ccc(CC2CCC3C4CCCN5CCCC(CN3C2=O)C45)cc1` (stereo not drawn) [4MBM, 14-(4-methylbenzyl)matrine]: in series [1], the time to peak (Tmax) was approximately 1.58 h, the Cmax was found to be 992 ± 275 ng/mL, the half-life was 4.92 ± 0.367 h and the k el is 3.94e-05 s⁻¹. In addition, in series [1], the MRT last was 7.67 h, the CL is 59 ± 21 mL/min and the V was 24361 ± 6921 mL. The compound further showed an AUC(0-t) in series [1] (first AUC0-t line of Table 3) of 7680 ng·h/mL. Besides, the AUC(0-t) in series [1] (second AUC0-t line of Table 3) is 7920 ng·h/mL. For the same compound, the tumor inhibition rate in the series with hepatoma was 51.15%. Moreover, in series [2] (spike 5 ng/ml), the “Stability III R.E.” value was 2.60%, the “Stability III Concentration” value is 5.13 ± 0.37 ng/mL, the “Stability II Concentration” value turned out to be 4.98 ± 0.23 ng/mL and the “Stability I R.E.” value is given as 3.20%. In addition, the “Stability I Concentration” value in series [2] (spike 5 ng/ml) was 5.16 ± 0.29 ng/mL. Also, in series [2] (spike 800 ng/ml), the “Stability III R.E.” value is -1.58%, the “Stability III Concentration” value amounted to 787.4 ± 24.1 ng/mL, the “Stability II R.E.” value is reported as -1.30% and the “Stability II Concentration” value was 789.6 ± 67.9 ng/mL. Also, in series [2] (spike 800 ng/ml), the “Stability I R.E.” value worked out at 3.11% and the “Stability I Concentration” value amounted to 824.9 ± 37.2 ng/mL. Besides, in series [2] (spike 1600 ng/ml), the “Stability III R.E.” value is given as 2.23%, the “Stability III Concentration” value is 1636 ± 36.6 ng/mL, the “Stability II R.E.” value is given as -1.04% and the “Stability II Concentration” value turned out to be 1583 ± 99.2 ng/mL. Further, in series [2] (spike 1600 ng/ml), the “Stability I R.E.” value is reported as -1.42% and the “Stability I Concentration” value was determined as 1577 ± 60.7 ng/mL.
On to `O=C1CCC[C@@H]2[C@H]3CCCN4CCC[C@@H](CN12)[C@@H]34` [MT, Matrine], for which the tumor inhibition rate with hepatoma is 39.69%.
